Article PMC6412143 (Pharmacology Research & Perspectives, 2019)

Legend:
[1] = parameters: method as in Novartis Investigator Brochure (IB); conditions: ref Novartis Investigator Brochure (IB); cited from earlier work
[2] = system: Abl; conditions: read-out: Abl IC50; stated in discussion, no reference given; cited from earlier work
[3] = system: total alpha-synuclein; experiment: Total alpha-synuclein ELISA in CSF and plasma
[4] = system: TREM2; conditions: Nilotinib-treated groups, single dose
[5] = parameters: method as in Novartis Investigator Brochure (IB); conditions: quoted with the PgP IC50; ref Novartis Investigator Brochure (IB); cited from earlier work
[6] = system: PgP; conditions: read-out: PgP inhibitor IC50; ref Novartis Investigator Brochure (IB); cited from earlier work

SMILES: Cc1cn(-c2cc(NC(=O)c3ccc(C)c(Nc4nccc(-c5cccnc5)n4)c3)cc(C(F)(F)F)c2)cn1 [Nilotinib]
- passive permeability [1]: moderate
- plasma total alpha-synuclein vs placebo ([3]; 150 mg group, Figure 5B): significantly reduced
- plasma total alpha-synuclein vs placebo ([3]; 3 hours and 4 hours): No difference
- plasma levels of TREM2 vs placebo [4]: not changed
- Cmax [5]: 0.06 µM
